Measurements as given in patent US20090312349A1, “ANTI-INFLAMMATORY MEDICAMENTS” (priority 2004, published 2009).

Molecular target: T1, phospho p-38 alpha kinase (Homo sapiens, UniProt Q16539)
T1 construct: purchased Panvera
Test: P-38 alpha kinase assay (spectrophotometric, pyruvate kinase/lactate dehydrogenase coupled)
Type: biochemical
Conditions: Table 5; for IC50: assay not named, read-out: uM
Experimental: In this assay, the oxidation of NADH was continuously measured spectrophometrically. […] The reaction was initiated by adding ATP. The absorption at 340 nm was monitored continuously for up to 4 hours at 30° C. on Polarstar Optima plate reader (BMG). The kinase activity (reaction rate) was calculated from the slope at the time frame from 1.5 h to 2 h.
For inhibition determinations, test compounds were incubated with the reaction mixture for ˜5 min before adding ATP to start the reaction. […] IC50 values were calculated from a series of % inhibition values determined at a range of concentrations of each inhibitor using Prism to process the data and fit inhibition curves. Generally, the rates obtained at the time frame of 1.5 h to 2 h were used for these calculations.

T1 sequence (Q16539 whole entry): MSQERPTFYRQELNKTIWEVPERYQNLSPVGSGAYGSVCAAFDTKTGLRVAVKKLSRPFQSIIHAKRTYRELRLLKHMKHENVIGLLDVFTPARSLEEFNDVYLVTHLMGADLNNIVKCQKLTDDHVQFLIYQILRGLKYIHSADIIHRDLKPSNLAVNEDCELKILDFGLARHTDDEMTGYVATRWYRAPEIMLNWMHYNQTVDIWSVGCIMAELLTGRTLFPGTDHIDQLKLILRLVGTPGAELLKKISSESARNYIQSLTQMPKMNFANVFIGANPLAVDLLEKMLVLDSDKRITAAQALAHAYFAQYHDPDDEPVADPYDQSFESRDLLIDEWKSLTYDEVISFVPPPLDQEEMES

In the case of CN(C)C(=O)NCc1cccc(-n2nc(C(C)(C)C)cc2NC(=O)Nc2ccc(Cl)cc2)c1 [Example 388, 1-{3-t-butyl-1-[3-(3,3-dimethylureidomethyl)phenyl]-1H-pyrazol-5-yl}-3-(4-chlorophenyl)urea], the IC50 is reported as 1.65 µM.
CN1CCN(C(=O)NCc2cccc(-n3nc(C(C)(C)C)cc3NC(=O)Nc3cccc4ccccc34)c2)CC1 [Example 389, 1-{3-t-butyl-1-(3-[(1-methylpiperazine-4-carboxamido)methyl]phenyl}-1H-pyrazol-5-yl)-3-(naphthalen 1-yl)urea] gave an IC50 of 0.09 µM.
CN1CCN(C(=O)NCc2cccc(-n3nc(C(C)(C)C)cc3NC(=O)Nc3ccc(Cl)cc3)c2)CC1 [Example 390, 1-{3-t-butyl-1-(3-[(1-methylpiperazine-4-carboxamido)methyl]phenyl}-1H-pyrazol-5-yl)-3-(4-chlorophenyl)urea] was tested, and the “% @ concentration, uM” value (@ 0.1 uM) was 24% and the “% @ concentration, uM” value (@ 1 uM) was 63%.
Molecule CC(C)(C)c1cc(NC(=O)Nc2ccc(Cl)cc2)n(-c2cccc(CN3C(=O)C(=O)N(c4ccccc4)C3=O)c2)n1 [Example 391, 1-{3-t-butyl-1-(3-[(2,4,5-trioxo-3-phenylimidazolidin-1-yl)methyl]phenyl)-1H-pyrazol-5-yl}-3-(4-chlorophenyl)urea] has an IC50 of 0.91 µM.
CC(C)(C)c1cc(NC(=O)Nc2ccc(Cl)cc2)n(-c2cccc(Cn3c(=O)[nH]n(-c4ccccc4)c3=O)c2)n1 [Example 392, 1-(3-t-butyl-1-{3-[(3,5-dioxo-1-phenyl-1,2,4-triazolidin-4-yl)methyl]phenyl}-1H-pyrazol-5-yl)-3-(4-chlorophenyl)urea] was tested, and the “% @ concentration, uM” value (@ 0.1 uM) was 75% and the “% @ concentration, uM” value (@ 1 uM) was 86%.
For CCOC(=O)c1cccc(-n2nc(C(C)(C)C)cc2NC(=O)Nc2ccc(F)cc2)c1 [Example 393, ethyl 3-{3-t-butyl-5-[3-(4-fluorophenyl)ureido)-1H-pyrazol-1-yl}benzoate], the IC50 was 0.4 µM.
In the case of CC(C)(C)c1cc(NC(=O)Nc2ccc(F)cc2)n(-c2cccc(Cn3c(=O)[nH]n(-c4ccccc4)c3=O)c2)n1 [Example 395, 1-{3-t-butyl-1-(3-[(3,5-dioxo-1-phenyl-1,2,4-triazolidin-4-yl)methyl]phenyl}-1H-pyrazol-5-yl)-3-(4-fluorophenyl)urea], the IC50 is reported as 0.056 µM.
In the case of CC(C)(C)c1cc(NC(=O)Nc2cccc(Cl)c2Cl)n(-c2cccc(Cn3c(=O)[nH]n(-c4ccccc4)c3=O)c2)n1 [Example 396, 1-(3-t-butyl-1-{3-[(3,5-dioxo-1-phenyl-1,2,4-triazolidin-4-yl)methyl]phenyl}-1H-pyrazol-5-yl)-3-(2,3-dichlorophenyl)urea], the “% @ concentration, uM” value (@ 0.1 uM) is reported as 3% and the “% @ concentration, uM” value (@ 1 uM) is reported as 56%.
Molecule CCOC(=O)Cc1cccc(-n2nc(C(C)(C)C)cc2NC(=O)Nc2ccccc2)c1 [Example 397, ethyl 2-{3-[3-t-butyl-5-(3-phenylureido)-1H-pyrazol-1-yl]phenyl}acetate] has an IC50 of 0.04 µM.
For CC(C)(C)c1cc(NC(=O)Nc2ccc(Cl)cc2)n(-c2cccc(CC(=O)O)c2)n1 [Example 399, 2-(3-{3-t-butyl-5-[3-(4-chlorophenyl)ureido]-1H-pyrazol-1-yl-}phenyl)acetic acid], the “% @ concentration, uM” value (@ 0.1 uM) was 21% and the “% @ concentration, uM” value (@ 1 uM) was 74%.
CC(C)(C)c1cc(NC(=O)Nc2cccc3ccccc23)n(-c2ccc3c(c2)CNCC3)n1 [Example 406, 1-[3-t-butyl-1-(1,2,3,4-tetrahydroisoquinolin-7-yl)-1H-pyrazol-5-yl]-3-(naphthalen-1-yl)urea] showed an IC50 of 0.0134 µM.
For CC(C)(C)c1cc(NC(=O)Nc2ccc(Cl)cc2)n(-c2ccc3c(c2)CNCC3)n1 [Example 407, 1-[3-t-butyl-1-(1,2,3,4-tetrahydroisoquinolin-7-yl)-1H-pyrazol-5-yl]-3-(4-chlorophenyl)urea], the IC50 was 0.0103 µM.
In the case of Cn1[nH]c(=O)n(Cc2cccc(-n3nc(C(C)(C)C)cc3NC(=O)Nc3cccc(Cl)c3Cl)c2)c1=O [Example 408, 1-{5-t-butyl-2-[3-(1-methyl-3,5-dioxo-[1,2,4)triazolidin-4-ylmethyl)-phenyl]-2H-pyrazol-3-yl}-3-(2,3-dichloro-phenyl)-urea], the IC50 is reported as 0.116 µM.
Molecule CC(C)c1cc(NC(=O)Nc2cccc3ccccc23)n(-c2ccc(C(O)C(F)(F)F)cc2)n1 (stereo not shown) [Example 411, 1-(1-(4-(2,2,2-trifluoro-1-hydroxyethyl)phenyl)-3-isopropyl-1H-pyrazol-5-yl)-3-(naphthalen-1-yl)urea] has an IC50 of 0.008 µM.
CC(C)(C)c1cc(NC(=O)Nc2cccc3ccccc23)n(-c2ccc(O)cc2)n1 [Example 415, 1-(3-t-butyl-1-(4-hydroxyphenyl)-1H-pyrazol-5-yl)-3-(naphthalen-1-yl)urea] was tested, and the “% @ concentration, uM” value (@ 0.1 uM) was 28% and the “% @ concentration, uM” value (@ 1 uM) was 69%.
In the case of COC(=O)COc1ccc(-n2nc(C(C)(C)C)cc2NC(=O)Nc2cccc3ccccc23)cc1 [Example 416, 1-(3-t-butyl-1-(4-(carbomethoxymethyl)oxyphenyl)-1H-pyrazol-5-yl)-3-(naphthalen-1-yl)urea], the “% @ concentration, uM” value (@ 0.1 uM) is reported as 67% and the “% @ concentration, uM” value (@ 1 uM) is reported as 83%.
For CC(C)(C)c1cc(NC(=O)Nc2ccc(Cl)cc2)n(-c2ccc(OCc3ccccc3)cc2)n1 [Example 418, 1-(3-t-butyl-1-(4-(benzyloxy)phenyl)-1H-pyrazol-5-yl)-3-(4-chlorophenyl)urea], the IC50 was 0.075 µM.
Molecule CC(C)(C)c1cc(N)n(-c2ccc(O)cc2)n1 [Example 420, 4-(3-t-butyl-5-amino-1H-pyrazol-1-yl)phenol] has an IC50 of 0.0147 µM.
CC(C)(C)c1cc(NC(=O)Nc2ccc(Cl)cc2)n(-c2ccc(O)cc2)n1 [Example 421, 1-(3-t-butyl-1-(4 hydroxyphenyl)-1H-pyrazol-5-yl)-3-(4-chlorophenyl)urea] was tested, and the IC50 was 0.0147 µM.
CCOC(=O)CCc1cccc(-n2nc(C(F)(F)F)cc2NC(=O)Nc2ccc(Cl)cc2)c1 [Example 426, 3-{3-(5-[3-(4-chloro-phenyl)-ureido]-3-trifluoromethyl-pyrazol-1-yl}-phenyl)-propionic acid ethyl ester] showed an IC50 of 0.013 µM.
In the case of O=C(O)CCc1cccc(-n2nc(C(F)(F)F)cc2NC(=O)Nc2ccc(Cl)cc2)c1 [Example 427, 3-(3-(5-(3-(4 chlorophenyl)ureido)-3-(trifluoromethyl)-1H-pyrazol-1-yl)phenyl)propanoic acid], the IC50 is reported as 0.819 µM.
In the case of CCOC(=O)CCc1cccc(-n2nc(C)cc2NC(=O)Nc2ccc(Cl)cc2)c1 [Example 428, 3-(3-{5-[3-(4-chloro-phenyl)-ureido)-3-methyl-pyrazol-1-yl}-phenyl)-propionic acid ethyl ester], the IC50 is reported as 0.14 µM.
Molecule CC(C)c1cc(NC(=O)Nc2ccc(Cl)cc2)n(-c2cccc(CCC(=O)O)c2)n1 [Example 429, 3-(3-(5-(3-(4-chlorophenyl)ureido)-3-isopropyl-1H-pyrazol-1-yl)phenyl)propanoic acid] has an IC50 of 1.07 µM.
O=C(O)Cc1cccc(-n2nc(-c3ccccc3)cc2NC(=O)Nc2cccc(Cl)c2Cl)c1 [Example 430, 2-(3-(5-(3-(2,3-dichlorophenyl)ureido)-3-phenyl-1H-pyrazol-1-yl)phenyl)acetic acid] was tested, and the IC50 was 0.942 µM.
CN1CCN(C(=O)Cc2ccc(-n3nc(-c4ccccc4)cc3NC(=O)Nc3cccc(Cl)c3Cl)cc2)CC1 [Example 475, 1-(2,3-dichlorophenyl)-3-(1-(4-(2-(4-methylpiperazin-1-yl)-2-oxoethyl)phenyl)-3-phenyl-1H-pyrazol-5-yl)urea] was tested, and the IC50 was 0.01 µM.
